From PubChem BioAssay AID192 (DTP/NCI, 2004)
Inconclusive results and toxic doses are left out.

System: BDF1 mice, B16 melanoma ip, median survival T/C
Experiment: NCI In Vivo Anticancer Drug Screen. Data for tumor model B16 Melanoma (intraperitoneal) in B6D2F1 (BDF1) mice
Details: endpoint: median survival time, higher = longer survival
In short: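 Values are ratios of treated (T) to vehicle-control (C) measurements of survival or tumor size in tumor-bearing mice.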

[1] = dose: 25.0 mg/kg/injection, schedule: Q01DX009 (ip), vehicle: Klucel (hydroxypropylcellulose) (HPC)
[2] = dose: 50.0 mg/kg/injection, schedule: Q01DX009 (ip), vehicle: Klucel (hydroxypropylcellulose) (HPC)

Question: With `C=C1C(=O)O[C@@H]2/C=C(\C)CC/C=C(/COC(C)=O)C[C@@H](OC(C)=O)[C@@H]12` as the compound, how does the T/C (dose: 5.0 mg/kg/injection, schedule: Q01DX009 (ip), vehicle: saline with Tween-80) read?
Answer: 107 % of control

Question: And the T/C (dose: 10.0 mg/kg/injection, schedule: Q01DX009 (ip), vehicle: saline with Tween-80)?
Answer: 99 % of control

Question: And the T/C (dose: 18.0 mg/kg/injection, schedule: Q01DX009 (ip), vehicle: acetone)?
Answer: 95 % of control

Question: And the T/C (dose: 20.0 mg/kg/injection, schedule: Q01DX009 (ip), vehicle: saline with Tween-80)?
Answer: 104 % of control

Question: Which T/C (dose: 100.0 mg/kg/injection, schedule: Q04DX003 (ip), vehicle: Klucel (hydroxypropylcellulose) (HPC)) does the source give for `COc1ccc2c(c1)CN(S(=O)(=O)c1ccc(C)cc1)CCC2O` (centres undefined) here?
Answer: 96 % of control

Question: What about the T/C (dose: 200.0 mg/kg/injection, schedule: Q04DX003 (ip), vehicle: Klucel (hydroxypropylcellulose) (HPC)) of the same compound?
Answer: 93 % of control

Question: And the T/C (dose: 400.0 mg/kg/injection, schedule: Q04DX003 (ip), vehicle: Klucel (hydroxypropylcellulose) (HPC))?
Answer: 95 % of control

Question: `O=S(=O)(NN=C(c1ccccc1)c1ccccc1)c1ccccc1` was tested. Which T/C [1] did it give?
Answer: 86 % of control

Question: And the T/C [2]?
Answer: 91 % of control

Question: What does the source list for `CC[n+]1c(-c2ccccc2)c2cc(N)ccc2c2ccc(N)cc21`?
Answer: T/C (dose: 0.75 mg/kg/injection, schedule: Q01DX009 (ip), vehicle: water): 98 % of control; T/C (dose: 1.0 mg/kg/injection, schedule: Q01DX009 (ip), vehicle: saline): 95 % of control; T/C (dose: 1.5 mg/kg/injection, schedule: Q01DX009 (ip), vehicle: water): 106 % of control; T/C (dose: 1.56 mg/kg/injection, schedule: Q01DX009 (ip), vehicle: saline): 105 % of control; T/C (dose: 2.0 mg/kg/injection, schedule: Q01DX009 (ip), vehicle: saline): 95 % of control; T/C (dose: 3.0 mg/kg/injection, schedule: Q01DX009 (ip), vehicle: water): 108 % of control; T/C (dose: 3.12 mg/kg/injection, schedule: Q01DX009 (ip), vehicle: saline): 158 % of control; T/C (dose: 4.0 mg/kg/injection, schedule: Q01DX009 (ip), vehicle: saline sonified): 120 % of control; T/C (dose: 4.0 mg/kg/injection, schedule: Q01DX009 (ip), vehicle: saline): 108 % of control; T/C (dose: 6.0 mg/kg/injection, schedule: Q01DX009 (ip), vehicle: water): 112 % of control; T/C (dose: 8.0 mg/kg/injection, schedule: Q01DX009 (ip), vehicle: saline sonified): 115 % of control; T/C (dose: 8.0 mg/kg/injection, schedule: Q01DX009 (ip), vehicle: saline): 108 % of control

Question: Which results are given for `Nc1cc(Cl)c2cccnc2c1O`?
Answer: T/C (dose: 22.0 mg/kg/injection, schedule: Q01DX009 (ip), vehicle: saline): 115 % of control; T/C (dose: 33.0 mg/kg/injection, schedule: Q01DX009 (ip), vehicle: saline): 120 % of control; T/C (dose: 44.0 mg/kg/injection, schedule: Q04DX003 (ip), vehicle: saline): 106 % of control; T/C (dose: 66.0 mg/kg/injection, schedule: Q04DX003 (ip), vehicle: saline): 106 % of control; T/C (dose: 100.0 mg/kg/injection, schedule: Q04DX003 (ip), vehicle: saline): 86 % of control

Question: What does the source list for `CC1OC(O[C@H]2C[C@](O)(C(C)O)Cc3c(O)c4c(c(O)c32)C(=O)c2c(O)cccc2C4=O)CC(NC=O)C1O` (some centres undefined)?
Answer: T/C (dose: 2.0 micrograms/kg/injection, schedule: Q01DX009 (ip), vehicle: saline): 154 % of control; T/C (dose: 4.0 micrograms/kg/injection, schedule: Q01DX009 (ip), vehicle: saline): 154 % of control; T/C (dose: 8.0 micrograms/kg/injection, schedule: Q01DX009 (ip), vehicle: saline): 192 % of control; T/C (dose: 16.0 micrograms/kg/injection, schedule: Q01DX009 (ip), vehicle: saline): 249 % of control; T/C (dose: 32.0 micrograms/kg/injection, schedule: Q01DX009 (ip), vehicle: saline): 195 % of control

Question: What does the source list for `CC(=O)NC(C=O)C(O)C(O)C(O)C(=O)O` (centres undefined) (tested in a mixture with another compound)?
Answer: T/C (dose: 6.25 mg/kg/injection, schedule: Q01DX009 (ip), vehicle: Klucel (hydroxypropylcellulose) (HPC)): 100 % of control; T/C (dose: 12.5 mg/kg/injection, schedule: Q01DX009 (ip), vehicle: Klucel (hydroxypropylcellulose) (HPC)): 107 % of control; T/C [1]: 98 % of control

Question: For `CCCCCCCCCC1(C)OCC(COC(N)=O)O1` (centres undefined), which T/C [1] is on record?
Answer: 90 % of control

Question: What about the T/C [2] of the same compound?
Answer: 90 % of control

Question: And the T/C (dose: 100.0 mg/kg/injection, schedule: Q01DX009 (ip), vehicle: Klucel (hydroxypropylcellulose) (HPC))?
Answer: 92 % of control

Question: And the T/C (dose: 200.0 mg/kg/injection, schedule: Q01DX009 (ip), vehicle: Klucel (hydroxypropylcellulose) (HPC))?
Answer: 95 % of control

Question: What about the T/C (dose: 400.0 mg/kg/injection, schedule: Q01DX009 (ip), vehicle: Klucel (hydroxypropylcellulose) (HPC)) of the same compound?
Answer: 95 % of control
